# Experimental data as given in PubChem BioAssay (NCI).
#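 Each compound was tested at five concentrations against cells in 96-well plates for 48 hours. Definition used: TGI = concentration required for complete inhibition of growth.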
# Columns and labels:
# Experiment in all cases: NCI tumour cell line growth inhibition, 48 h
# [1] = system: A549 NSCLC
# [2] = system: BT-549 breast
# [3] = system: CCRF-CEM leukemia
# [4] = system: COLO 205 colon
# [5] = system: LOX IMVI melanoma
# [6] = system: RXF 393 renal
# [7] = system: SK-MEL-28 melanoma
# [8] = system: SNB-75 CNS
# [9] = system: SR leukemia
Structure (SMILES),TGI [1],TGI [2],TGI [3],TGI [4],TGI [5],TGI [6],TGI [7],TGI [8],TGI [9]
CC1=NN(c2nc(N)nc(CO)n2)C(C)(C)C1,> 100 µM,> 100 µM,> 100 µM,> 100 µM,> 100 µM,> 100 µM,> 100 µM,> 100 µM,–
Cc1cccc2c(=O)c3c(O)cc(O)cc3n(C)c12,> 100 µM,> 100 µM,> 100 µM,> 100 µM,> 100 µM,> 100 µM,> 100 µM,> 100 µM,> 100 µM
O=C1NC(N2CCCC(CO)C2)=N/C1=C\c1cccs1 (configuration not stated),> 100 µM,> 100 µM,> 100 µM,> 100 µM,> 100 µM,> 100 µM,> 100 µM,> 100 µM,> 100 µM
COC1OC2COC(=O)c3cc(O)c(O)c(O)c3-c3c(cc(O)c(O)c3O)C(=O)OC2C(O)C1O (configuration not stated),> 100 µM,> 100 µM,> 100 µM,> 100 µM,60 µM,> 100 µM,> 100 µM,> 100 µM,–
NC(CCC(=O)c1ccccn1)C(=O)O (configuration not stated),> 100 µM,> 100 µM,> 100 µM,> 100 µM,> 100 µM,> 100 µM,> 100 µM,–,> 100 µM
CC(=O)OC1CCn2c1nc1cc([N+](=O)[O-])c(C)cc12 (configuration not stated),> 100 µM,> 100 µM,> 100 µM,> 100 µM,> 100 µM,> 100 µM,> 100 µM,> 100 µM,> 100 µM
NC(Cc1ccccc1)C(=O)OCN1C(=O)C2C3C=CC(C2C1=O)C1C(=O)N(COC(=O)C(N)Cc2ccccc2)C(=O)C31 (configuration not stated),> 100 µM,> 100 µM,49.7 µM,> 100 µM,42.2 µM,> 100 µM,> 100 µM,–,53.4 µM
CC(=O)Oc1ccc2cc(Oc3cc(Cl)c(Cl)cc3Cl)c(=O)oc2c1,40.2 µM,26.7 µM,37.9 µM,–,28.9 µM,31.5 µM,59.6 µM,44.6 µM,67.6 µM
COc1cccc(NC(=O)CC(=O)NN)c1,> 100 µM,> 100 µM,> 100 µM,> 100 µM,> 100 µM,> 100 µM,> 100 µM,> 100 µM,> 100 µM
S=c1ncc(-c2cncc(-c3cnc(=S)[nH]c3)n2)c[nH]1,> 100 µM,> 100 µM,> 100 µM,> 100 µM,–,> 100 µM,> 100 µM,> 100 µM,> 100 µM
Nc1nc(N)c2nc(CN(C=O)c3ccc(C(=O)O)cc3)cnc2n1,> 100 µM,> 94.7 µM,> 100 µM,> 100 µM,> 100 µM,> 100 µM,> 100 µM,> 100 µM,> 100 µM
NC1=Nc2cc(C(F)(F)F)ccc2Sc2nc3ccccc3n21,> 100 µM,> 100 µM,> 24.8 µM,> 100 µM,> 100 µM,> 100 µM,> 100 µM,71.2 µM,> 25.4 µM
CC1(C)N=C(C(N)=O)c2[nH]cnc2N1,> 100 µM,–,> 100 µM,> 100 µM,> 100 µM,> 100 µM,> 100 µM,> 100 µM,> 100 µM
C[N+]1(C)CCCC(C#N)(c2ccccc2)CC1 (configuration not stated),> 100 µM,–,> 100 µM,> 100 µM,–,> 100 µM,> 100 µM,> 100 µM,> 100 µM
CCOC(=O)C1=C(O)CC(=O)N=C1N1CCCC1,> 100 µM,–,> 100 µM,> 100 µM,> 100 µM,> 100 µM,> 100 µM,–,> 100 µM
CN(C)C(=O)C(F)(F)C(c1ccccc1Br)C1C(=O)N(C)C(=O)N(C)C1=O (configuration not stated),> 100 µM,> 100 µM,> 100 µM,> 100 µM,> 100 µM,> 100 µM,> 100 µM,> 100 µM,–
C=CCOCC1C2CCC3(OCCO3)C21 (configuration not stated),> 100 µM,> 100 µM,> 100 µM,> 100 µM,> 100 µM,> 100 µM,> 100 µM,> 100 µM,> 100 µM
CC1CC(=O)N(N(C)C)C2(C#N)C(=O)N=C(N)C12C#N (configuration not stated),> 100 µM,–,67.5 µM,> 100 µM,> 100 µM,> 100 µM,–,> 100 µM,> 100 µM
CO[C@@]12C[C@H](CNC(=O)c3ccc[nH]3)O[C@@H]1NC(=O)N2,> 100 µM,> 100 µM,–,> 100 µM,> 100 µM,–,> 100 µM,> 100 µM,> 100 µM
COC(=O)c1ccccc1CC1Cc2c(C)ccc(C)c2C1=O (configuration not stated),> 100 µM,> 100 µM,52.8 µM,34.3 µM,37.4 µM,51 µM,> 100 µM,> 100 µM,–
c1ccc(C(Oc2noc3ccccc23)c2ccccc2)cc1,> 100 µM,96.4 µM,49.7 µM,37 µM,> 100 µM,35.9 µM,> 100 µM,37 µM,51.6 µM
COc1ccc(OC)c2c(C(C)=O)cccc12,> 100 µM,–,> 100 µM,> 100 µM,–,> 100 µM,> 100 µM,–,> 100 µM
CCOC(=O)C(C)c1nc2cc(F)c(F)cc2[nH]c1=O (configuration not stated),> 100 µM,> 100 µM,> 100 µM,> 100 µM,> 100 µM,> 100 µM,> 100 µM,> 100 µM,–
ClC1=NSSC1(Cl)Cl,> 100 µM,> 100 µM,> 100 µM,30.8 µM,> 100 µM,> 100 µM,–,> 100 µM,60.2 µM
CC(C)=CCC[C@@H](C)C1=C(O)C(N[C@H](C)c2ccccc2)=C(C)C(=O)C1=O,14.7 µM,67 µM,–,20 µM,22.1 µM,25 µM,> 46.7 µM,> 56.4 µM,> 100 µM
